Test results reported in US20260263479A1, “KRAS G12D INHIBITORS AND USES THEREOF” (SUZHOU ZANRONG PHARMA LIMITED, priority 2023, published 2026).

Tested on: PANC-1 pERK
Assay: Phospho-ERK 1/2 assay
Format: cell-based
Conditions: Homo sapiens, PANC-1, 3 h, PANC-1 cells, 3 hours incubation with compound
Procedure: Allow PNAC-1 cell growth in a T75 flask in DMEM and 10% 1 fetal calf serum (FCS; Gibco®), using standard tissue culture procedures until ~80% confluency is achieved. Day 1, seed 6000 cells/well in 384 well plate and incubate at 37° C., 5% CO2. Add diluted compound by Echo 550, final DMSO is 0.5%, incubate cells at 37° C., 5% CO2 for 3 hours. Then, remove medium and fix cells with 3.7% formaldehyde in PBS (PFA) by Apricot. Wash with PBS once. Permeabilize cells with cold 100% methanol and repeat wash once with PBS once. Add Li-Cor blocking buffer to each well and incubate 1.5 hours at RT. Remove blocking buffer and add primary antibody mixture (rabbit anti pERK, mouse anti GAPDH). Incubate at 4° C. overnight. Day 2, wash with PBST (Tween-20 in PBS) with total 3 times and then add secondary antibody mixture (goat anti rabbit 800CW (1:800 dilution in the combined solution) and goat anti mouse 680RD (1:800 dilution in the combined solution)), incubate for 60 minutes at RT away from light. Repeat washing with PBST 3 times. After final wash, centrifuge plate up-side-down at 1000 rpm to remove wash solution completely from wells. Before plate scanning, clean the bottom plate surface and the Odyssey® Imager scanning bed (if applicable) with moist, lint-free tissue to avoid any obstructions during scanning. Scan plate with detection in both 700 and 800 nm channels.

SMILES | IC50
C#Cc1c(F)ccc2cc(O)cc(-c3nc4c5c(cc(OC[C@@]67CCCN6CC(=C)C7)nc5c3F)N3C[C@H]5CC[C@H](N5)[C@H]3CO4)c12 [Example 2, 5-ethynyl-6-fluoro-4-((5aS,6S,9R)-1-fluoro-13-(((S)-2-methylenetetrahydro-1H-pyrrolizin-7a (5H)-yl)methoxy)-5a,6,7,8,9,10-hexahydro-5H-6,9-epiminoazepino[2′,1′: 3,4][1,4]oxazepino[5,6,7-de][1,6]naphthyridin-2-yl)naphthalen-2-ol] | 14 nM
C#Cc1c(F)ccc2cc(O)cc(-c3nc4c5c(cc(OCC67CC(=C)CN6CC(=C)C7)nc5c3F)N3C[C@H]5CC[C@H](N5)[C@H]3CO4)c12 [Example 4, 4-((5aS,6S,9R)-13-((2,6-dimethylenetetrahydro-1H-pyrrolizin-7a (5H)-yl)methoxy)-1-fluoro-5a,6,7,8,9,10-hexahydro-5H-6,9-epiminoazepino[2′,1′: 3,4][1,4]oxazepino[5,6,7-de][1,6]naphthyridin-2-yl)-5-ethynyl-6-fluoronaphthalen-2-ol] | 34 nM
C=C1CN2CCC[C@@]2(COc2cc3c4c(nc(-c5cc(O)cc6ccc(F)c(CC)c56)c(F)c4n2)OC[C@@H]2[C@@H]4CC[C@H](CN32)N4)C1 [Example 40, 5-ethyl-6-fluoro-4-((5aS,6S,9R)-1-fluoro-13-(((S)-2-methylenetetrahydro-1H-pyrrolizin-7a (5H)-yl)methoxy)-5a,6,7,8,9,10-hexahydro-5H-6,9-epiminoazepino[2′,1′: 3,4][1,4]oxazepino[5,6,7-de][1,6]naphthyridin-2-yl)naphthalen-2-ol] | 16 nM
C#Cc1c(F)ccc2cccc(-c3nc4c5c(cc(OC[C@@]67CCCN6CC(=C)C7)nc5c3F)N3C[C@H]5CC[C@H](N5)[C@H]3CO4)c12 [Example 78, (5aS,6S,9R)-2-(8-ethynyl-7-fluoronaphthalen-1-yl)-1-fluoro-13-(((S)-2-methylenetetrahydro-1H-pyrrolizin-7a (5H)-yl)methoxy)-5a,6,7,8,9,10-hexahydro-5H-6,9-epiminoazepino[2′,1′: 3,4][1,4]oxazepino[5,6,7-de][1,6]naphthyridine] | 464 nM
C#Cc1c(F)ccc2cc(O)cc(-c3nc4c5c(cc(OC[C@@]67CCCN6C[C@H](F)C7)nc5c3F)N3C[C@H]5CC[C@H](N5)[C@H]3[C@H](C)O4)c12 [Example 565, 5-ethynyl-6-fluoro-4-((5S,5aS,6S,9R)-1-fluoro-13-(((2R,7aS)-2-fluorotetrahydro-1H-pyrrolizin-7a (5H)-yl)methoxy)-5-methyl-5a,6,7,8,9,10-hexahydro-5H-6,9-epiminoazepino[2′,1′: 3,4][1,4]oxazepino[5,6,7-de][1,6]naphthyridin-2-yl)naphthalen-2-ol] | 1.2 nM
C#Cc1c(F)ccc2cc(O)cc(-c3nc4c5c(cc(OCC67CCCN6CC(=C)C7)nc5c3F)N3C[C@H]5CC[C@H](N5)[C@H]3[C@H](C)O4)c12 (some centres unmarked) [Example 566] | 2.9 nM
C#Cc1c(F)ccc2cc(O)cc(-c3nc4c5c(cc(OCC67CC(=C)CN6CC(=C)C7)nc5c3F)N3C[C@H]5CC[C@H](N5)[C@H]3[C@H](C)O4)c12 [Example 567] | 0.95 nM
CCc1c(F)ccc2cc(O)cc(-c3nc4c5c(cc(OC[C@@]67CCCN6C[C@H](F)C7)nc5c3F)N3C[C@H]5CC[C@H](N5)[C@H]3[C@H](C)O4)c12 [Example 568, 5-ethyl-6-fluoro-4-((5S,5aS,6S,9R)-1-fluoro-13-(((2R,7aS)-2-fluorotetrahydro-1H-pyrrolizin-7a (5H)-yl)methoxy)-5-methyl-5a,6,7,8,9,10-hexahydro-5H-6,9-epiminoazepino[2′,1′: 3,4][1,4]oxazepino[5,6,7-de][1,6]naphthyridin-2-yl)naphthalen-2-ol] | 5.6 nM
C=C1CN2CCCC2(COc2cc3c4c(nc(-c5cc(O)cc6ccc(F)c(CC)c56)c(F)c4n2)O[C@@H](C)[C@@H]2[C@@H]4CC[C@H](CN32)N4)C1 (some centres unmarked) [Example 569] | 1.7 nM
C=C1CN2CC(=C)CC2(COc2cc3c4c(nc(-c5cc(O)cc6ccc(F)c(CC)c56)c(F)c4n2)O[C@@H](C)[C@@H]2[C@@H]4CC[C@H](CN32)N4)C1 [Example 570] | 76 nM
C#Cc1c(F)ccc2cccc(-c3nc4c5c(cc(OC[C@@]67CCCN6C[C@H](F)C7)nc5c3F)N3C[C@H]5CC[C@H](N5)[C@H]3[C@H](C)O4)c12 [Example 571] | 17 nM
C#Cc1c(F)ccc2cccc(-c3nc4c5c(cc(OCC67CCCN6CC(=C)C7)nc5c3F)N3C[C@H]5CC[C@H](N5)[C@H]3[C@H](C)O4)c12 (some centres unmarked) [Example 572] | 14 nM
Cc1cc(N)nc(-c2nc3c4c(cc(OC[C@@]56CCCN5C[C@H](F)C6)nc4c2F)N2C[C@H]4CC[C@H](N4)[C@H]2[C@H](C)O3)c1C(F)(F)F [Example 574] | 33 nM
CCc1c(F)ccc2cc(O)cc(-c3nc4c5c(cc(OC[C@@]67CCCN6C/C(=C\F)C7)nc5c3F)N3C[C@H]5CC[C@H](N5)[C@H]3[C@H](C)O4)c12 [Example 601] | 8.2 nM
C#Cc1c(F)ccc2cc(O)cc(-c3nc4c5c(cc(OC[C@@]67CCCN6C/C(=C\F)C7)nc5c3F)N3C[C@H]5CC[C@H](N5)[C@H]3[C@H](C)O4)c12 [Example 602] | 1.5 nM
C#Cc1c(F)ccc2cccc(-c3nc4c5c(cc(OC[C@@]67CCCN6C/C(=C/F)C7)nc5c3F)N3C[C@H]5CC[C@H](N5)[C@H]3[C@H](C)O4)c12 [Example 603] | 48 nM
C#Cc1c(F)ccc2cccc(-c3nc4c5c(cc(OC[C@@]67CCCN6CC6(CC6(F)F)C7)nc5c3F)N3C[C@H]5CC[C@H](N5)[C@H]3[C@H](C)O4)c12 (some centres unmarked) [Example 604] | 184 nM
C=C1CN2CCC[C@@]2(COc2cc3c4c(nc(-c5cccc6ccc(F)c(CC)c56)c(F)c4n2)O[C@@H](C)[C@@H]2[C@@H]4CC[C@H](CN32)N4)C1 [Example 606] | 246 nM
C#Cc1c(F)ccc2cccc(-c3nc4c5c(cc(OC[C@]67CC(=C)CN6C[C@@H](F)C7)nc5c3F)N3C[C@H]5CC[C@H](N5)[C@H]3[C@H](C)O4)c12 [Example 607] | 198 nM
C#Cc1c(F)ccc2cccc(-c3nc4c5c(cc(OC[C@@]67CC(=C)CN6C[C@H](F)C7)nc5c3F)N3C[C@H]5CC[C@H](N5)[C@H]3[C@H](C)O4)c12 [Example 608] | 251 nM
C#Cc1c(F)ccc2cccc(-c3nc4c5c(cc(OC[C@@]67CC(=C)CN6C[C@H](OC)C7)nc5c3F)N3C[C@H]5CC[C@H](N5)[C@H]3[C@H](C)O4)c12 [Example 609] | 9.6 nM
C#Cc1c(F)ccc2cccc(-c3nc4c5c(cc(OCC6(CN7CCOC[C@H]7C)CC6)nc5c3F)N3C[C@H]5CC[C@H](N5)[C@H]3[C@H](C)O4)c12 [Example 611] | 14 nM
Cc1cc(N)nc(-c2c(F)c3c4c(cc(OCC5(CN6CCOC[C@H]6C)CC5)nc4c2F)N2C[C@H]4CC[C@H](N4)[C@H]2[C@H](C)O3)c1C(F)(F)F [Example 613a] | 111 nM
C#Cc1c(F)ccc2cc(O)cc(-c3nc4c5c(cc(OC[C@@]67CCCN6C[C@H](F)C7)nc5c3F)N3C[C@@]5(C)CC[C@H](N5)[C@H]3[C@H](C)O4)c12 [Example 614] | 8.1 nM
CCc1c(F)ccc2cc(O)cc(-c3nc4c5c(cc(OC[C@@]67CCCN6C[C@H](F)C7)nc5c3F)N3C[C@@]5(C)CC[C@H](N5)[C@H]3[C@H](C)O4)c12 [Example 615] | 25 nM

Same assay, conditions: PANC-1 cells, 3 hours incubation with compound

SMILES | IC50
C#Cc1c(F)ccc2cc(O)cc(-c3c(F)c4c5c(cc(OC[C@@]67CCCN6C[C@H](F)C7)nc5c3F)N3C[C@H]5CC[C@H](N5)[C@H]3[C@H](C)O4)c12 (single isomer, unassigned) [Example 577a] | 0.68 nM
C#Cc1c(F)ccc2cc(O)cc(-c3c(F)c4c5c(cc(OC[C@@]67CCCN6C[C@H](F)C7)nc5c3F)N3C[C@H]5CC[C@H](N5)[C@H]3[C@H](C)O4)c12 (single isomer, unassigned) [Example 577b] | 23.1 nM
C#Cc1cccc2cccc(-c3nc4c5c(cc(OC[C@@]67CCCN6CC(=C)C7)nc5c3F)N3C[C@H]5CC[C@H](N5)[C@H]3[C@H](C)O4)c12 [Example 605] | 25 nM
C=C1CN2CC(=C)CC2(COc2cc3c4c(nc(-c5cc(O)cc6ccc(F)c(CC)c56)c(F)c4n2)OC[C@@H]2[C@@H]4CC[C@H](CN32)N4)C1 [compound 42] | 169 nM

Target: T1, P-glycoprotein (Pgp) (Homo sapiens, UniProt P08183)
T1 construct: expressed in transfected cells; host or cells: MDCK-MDR1 cells
T1 sequence (P08183 whole entry): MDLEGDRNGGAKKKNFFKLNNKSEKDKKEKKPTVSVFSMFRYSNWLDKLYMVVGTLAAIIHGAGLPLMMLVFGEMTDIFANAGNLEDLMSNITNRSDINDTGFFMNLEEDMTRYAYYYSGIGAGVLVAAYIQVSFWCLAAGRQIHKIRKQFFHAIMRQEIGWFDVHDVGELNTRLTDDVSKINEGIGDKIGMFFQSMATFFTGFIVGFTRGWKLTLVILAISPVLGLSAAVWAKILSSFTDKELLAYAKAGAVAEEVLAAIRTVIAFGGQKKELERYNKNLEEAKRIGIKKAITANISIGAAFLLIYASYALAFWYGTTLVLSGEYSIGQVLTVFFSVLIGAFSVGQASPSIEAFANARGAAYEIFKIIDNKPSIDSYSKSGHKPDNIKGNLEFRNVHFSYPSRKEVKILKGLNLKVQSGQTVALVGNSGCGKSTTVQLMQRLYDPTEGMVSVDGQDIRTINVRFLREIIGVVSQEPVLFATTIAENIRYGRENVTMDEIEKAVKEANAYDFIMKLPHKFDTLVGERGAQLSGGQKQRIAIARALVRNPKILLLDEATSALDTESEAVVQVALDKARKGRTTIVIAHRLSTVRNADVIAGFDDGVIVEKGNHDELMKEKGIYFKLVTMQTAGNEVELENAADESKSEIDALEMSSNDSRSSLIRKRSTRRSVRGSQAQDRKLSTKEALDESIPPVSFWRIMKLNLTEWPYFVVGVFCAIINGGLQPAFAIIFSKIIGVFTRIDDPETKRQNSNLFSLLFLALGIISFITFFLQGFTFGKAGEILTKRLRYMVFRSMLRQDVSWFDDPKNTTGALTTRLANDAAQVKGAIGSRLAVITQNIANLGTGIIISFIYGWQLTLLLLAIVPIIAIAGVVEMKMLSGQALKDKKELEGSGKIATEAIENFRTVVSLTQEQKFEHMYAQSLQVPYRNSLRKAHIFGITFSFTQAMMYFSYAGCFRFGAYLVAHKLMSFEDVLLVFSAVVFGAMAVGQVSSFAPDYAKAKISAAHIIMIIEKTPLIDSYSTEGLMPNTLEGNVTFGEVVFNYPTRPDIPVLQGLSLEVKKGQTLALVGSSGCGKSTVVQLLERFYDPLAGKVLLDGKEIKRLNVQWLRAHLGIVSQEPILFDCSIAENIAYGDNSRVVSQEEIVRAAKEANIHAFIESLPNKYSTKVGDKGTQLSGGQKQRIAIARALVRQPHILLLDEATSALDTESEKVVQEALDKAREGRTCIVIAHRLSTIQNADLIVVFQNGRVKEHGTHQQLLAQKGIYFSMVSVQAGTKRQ
Assay: MDCK-MDR1 Pgp assessment
Format: in vitro ADME
Conditions: dog, MDCK-MDR1 cells, 37° C., read-out: Pgp Efflux Ratio (Pexact)
Procedure: Efflux transport mediated by P-glycoprotein (Pgp) was assessed by MDCK-MDR1 cells. The final concentrations of test compounds and control compound were at 1 μM. The multi-well insert plate was incubated at 37° C. for 2 hours. In order to reliably measure passive permeability coefficients, Pexact was reported, which automatically corrects for loss of compound.

SMILES | efflux ratio at 2 h, 1 μM
C#Cc1c(F)ccc2cc(O)cc(-c3nc4c5c(cc(OC[C@@]67CCCN6CC(=C)C7)nc5c3F)N3C[C@H]5CC[C@H](N5)[C@H]3CO4)c12 [Example 2, 5-ethynyl-6-fluoro-4-((5aS,6S,9R)-1-fluoro-13-(((S)-2-methylenetetrahydro-1H-pyrrolizin-7a (5H)-yl)methoxy)-5a,6,7,8,9,10-hexahydro-5H-6,9-epiminoazepino[2′,1′: 3,4][1,4]oxazepino[5,6,7-de][1,6]naphthyridin-2-yl)naphthalen-2-ol] | 5.37
C#Cc1c(F)ccc2cc(O)cc(-c3nc4c5c(cc(OC[C@@]67CCCN6C[C@H](F)C7)nc5c3F)N3C[C@H]5CC[C@H](N5)[C@H]3[C@H](C)O4)c12 [Example 565, 5-ethynyl-6-fluoro-4-((5S,5aS,6S,9R)-1-fluoro-13-(((2R,7aS)-2-fluorotetrahydro-1H-pyrrolizin-7a (5H)-yl)methoxy)-5-methyl-5a,6,7,8,9,10-hexahydro-5H-6,9-epiminoazepino[2′,1′: 3,4][1,4]oxazepino[5,6,7-de][1,6]naphthyridin-2-yl)naphthalen-2-ol] | 5.25
C#Cc1c(F)ccc2cc(O)cc(-c3nc4c5c(cc(OCC67CCCN6CC(=C)C7)nc5c3F)N3C[C@H]5CC[C@H](N5)[C@H]3[C@H](C)O4)c12 (some centres unmarked) [Example 566] | 13
